# Experimental data as given in patent US7598010B2, “Triarylamine dimer derivative having amorphous phase” (Orient Chemical Industries, Ltd., priority 2003, dated 2009).
# Read-outs that look alike come from different tables or passages of the source.
# How the values were obtained:
# [1] = Determination of the solubility in organic solvents; format: physicochemical; settings: for solubility: organic solvent or mixture, thermodynamic from solid; for solubility / Solubility (g/ml) Xylene / Solubility (g/ml) DMF / Solubility (g/ml) THF / Solubility (g/ml) Chloroform / Solubility (g/ml) Dichloromethane: 5 ml, added until saturation; for Solubility (g/ml) Xylene: solvent xylene
# Protocol: (Determination of the Solubility)
# Respectively, 5 ml of the solvents of THF, DMF, xylene, chloroform and dichloromethane were measured and poured into 20 ml of tubular bottoms with screw caps. […] The solubility (g/ml) to the respective solvent was determined from the weight of the triarylamine dimer derivative added until saturation.
# [2] = Differential scanning calorimetry (DSC), glass transition point; format: physicochemical; settings: determined by DSC
# Source text: (Differential Scanning Calorimetry (DSC))
# The results of the glass transition point (Tg) determined by DSC of the triarylamine dimer derivatives obtained in Examples 1 to 6 are shown in Table 3.
# [3] = chloroform, solvent chloroform, read-out: Solubility (g/ml) Chloroform
# [4] = dichloromethane, solvent dichloromethane, read-out: Solubility (g/ml) Dichloromethane
Compound,"solubility ([1]; DMF, solvent DMF, read-out: Solubility (g/ml) DMF)","solubility ([1]; THF, solvent THF, read-out: Solubility (g/ml) THF)","solubility [1, 3]","solubility [1, 4]",Solubility (g/ml) Xylene [1],Solubility (g/ml) DMF ([1]; solvent DMF),Solubility (g/ml) THF ([1]; solvent THF),Solubility (g/ml) Chloroform ([1]; solvent chloroform),Solubility (g/ml) Dichloromethane ([1]; solvent dichloromethane),Glass Transition Point(Tg) [2],Solubility in organic solvent (in words) [1],Solubility compared with alpha-NPD (times higher) ([1]; organic solvents of Table 2)
"Cc1ccc(N(c2ccccc2)c2ccc(-c3ccc(N(c4ccccc4)c4ccc(C)cc4)cc3)cc2)cc1 [Comparative Example2, N,N′-diphenyl-N,N′-bis(4-tolyl)-4,4′-diaminobiphenyl]",0.036 g/mL,0.413 g/mL,0.613 g/mL,0.397 g/mL,0.152 g/mL,,,,,,,
"c1ccc(N(c2ccc(-c3ccc(N(c4ccccc4)c4ccc5ccccc5c4)cc3)cc2)c2ccc3ccccc3c2)cc1 [Comparative Example5, N,N′-diphenyl-N,N′-bis(2-naphthyl)-4,4′-diaminobiphenyl]",,,,,0.103 g/mL,0.012 g/mL,0.235 g/mL,0.395 g/mL,0.195 g/mL,,,
"Cc1cccc(N(c2ccccc2)c2ccc(-c3ccc(N(c4ccccc4)c4cccc(C)c4)cc3)cc2)c1 [Example1, N,N′-diphenyl-N,N′-bis(3-tolyl)-4,4′-diaminobiphenyl]",,,,,,,,,,63.2 Degrees C.,,
"Cc1ccc(N(c2ccccc2)c2ccc(-c3ccc(N(c4ccccc4)c4ccc(C)cc4)cc3)cc2)cc1 [Example2, N,N′-diphenyl-N,N′-bis(4-tolyl)-4,4′-diaminobiphenyl]",,,,,0.334 g/mL,0.060 g/mL,0.732 g/mL,0.892 g/mL,0.696 g/mL,75.0 Degrees C.,,

# More lines, now with the values ahead:
"solubility ([1]; DMF, solvent DMF, read-out: Solubility (g/ml) DMF)","solubility ([1]; THF, solvent THF, read-out: Solubility (g/ml) THF)","solubility [1, 3]","solubility [1, 4]",Solubility (g/ml) Xylene [1],Solubility (g/ml) DMF ([1]; solvent DMF),Solubility (g/ml) THF ([1]; solvent THF),Solubility (g/ml) Chloroform ([1]; solvent chloroform),Solubility (g/ml) Dichloromethane ([1]; solvent dichloromethane),Glass Transition Point(Tg) [2],Solubility in organic solvent (in words) [1],Solubility compared with alpha-NPD (times higher) ([1]; organic solvents of Table 2),Compound
,,,,0.002 g/mL,0.001 g/mL,0.009 g/mL,0.024 g/mL,0.021 g/mL,,,,"c1ccc(N(c2ccc(-c3ccc(N(c4ccccc4)c4cccc5ccccc45)cc3)cc2)c2cccc3ccccc23)cc1 [Comparative Example4, N,N′-diphenyl-N,N′-bis(1-naphthyl)-4,4′-diaminobiphenyl]"
,,,,0.162 g/mL,0.033 g/mL,0.270 g/mL,0.452 g/mL,0.226 g/mL,,,,"c1ccc(N(c2ccc(-c3ccc(N(c4ccccc4)c4ccc5ccccc5c4)cc3)cc2)c2ccc3ccccc3c2)cc1 [Comparative Example6, N,N′-diphenyl-N,N′-bis(2-naphthyl)-4,4′-diaminobiphenyl]"
,,,,0.155 g/mL,0.028 g/mL,0.202 g/mL,0.368 g/mL,0.209 g/mL,,,,"c1ccc(N(c2ccc(-c3ccc(N(c4ccccc4)c4ccc5ccccc5c4)cc3)cc2)c2ccc3ccccc3c2)cc1 [Comparative Example7, N,N′-diphenyl-N,N′-bis(2-naphthyl)-4,4′-diaminobiphenyl]"
,,0.043 g/mL,0.029 g/mL,0.009 g/mL,0.007 g/mL,0.028 g/mL,,,98.8 Degrees C.,,,"c1ccc(N(c2ccc(-c3ccc(N(c4ccccc4)c4cccc5ccccc45)cc3)cc2)c2cccc3ccccc23)cc1 [Example4, N,N′-diphenyl-N,N′-bis(1-naphthyl)-4,4′-diaminobiphenyl]"
,,0.632 g/mL,,0.558 g/mL,0.301 g/mL,> 0.795 g/mL,,0.471 g/mL,99.4 Degrees C.,very high solubility,ten to several hundreds times higher,"c1ccc(N(c2ccc(-c3ccc(N(c4ccccc4)c4ccc5ccccc5c4)cc3)cc2)c2ccc3ccccc3c2)cc1 [Example5, N,N′-diphenyl-N,N′-bis(2-naphthyl)-4,4′-diaminobiphenyl]"
,,,,,,> 0.795 g/mL,,,99.4 Degrees C.,,,"c1ccc(N(c2ccc(-c3ccc(N(c4ccccc4)c4ccc5ccccc5c4)cc3)cc2)c2ccc3ccccc3c2)cc1 [Example6, N,N′-diphenyl-N,N′-bis(2-naphthyl)-4,4′-diaminobiphenyl]"
